Data: publication PMC8968063, “Key features of inhibitor binding to the human mitochondrial pyruvate carrier hetero-dimer” (Molecular Metabolism, 2022)
“And” between values parts separate entries of the source, which are not always exact repeats. Equal entries are not always repeated.

Key:
human MPC1L/MPC2 complex [1] = molecular target: T1, human MPC1L/MPC2 complex (Homo sapiens, UniProt O95563+P0DKB6); assay: nano-DSF thermostability shift assay, purified MPC1L/MPC2; type: binding; conditions: inhibitor 100 μM; for Tm, nano-DSF: unliganded 51.9 ± 0.1, mean ± s.d., 2 biological repeats
T1 construct: eight-histidine tag (C, cleaved yes); TEV protease cleavage site (part stays on MPC2 after digestion) (C, cleaved yes); made in house; host or cells: Saccharomyces cerevisiae SHY15 (mpc triple deletion strain), purified from mitochondria
T1 sequence (P0DKB6 2-136): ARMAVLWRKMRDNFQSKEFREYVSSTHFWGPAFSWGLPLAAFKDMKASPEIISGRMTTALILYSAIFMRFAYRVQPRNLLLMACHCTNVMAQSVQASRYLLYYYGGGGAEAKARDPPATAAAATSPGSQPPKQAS
T1 sequence (O95563 2-127): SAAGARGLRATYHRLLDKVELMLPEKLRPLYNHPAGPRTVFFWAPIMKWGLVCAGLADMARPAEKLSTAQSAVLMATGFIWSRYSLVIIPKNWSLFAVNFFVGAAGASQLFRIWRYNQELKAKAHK
Experimental: Ligand binding was also assessed using dye-free nano differential scanning fluorimetry (nano-DSF) to monitor fluorescence changes due to altered environments of tryptophan and tyrosine residues during unfolding. Protein samples in buffer containing 20 mM Tris–HCl pH 7.4, 150 mM NaCl, 0.1% (w/v) LMNG, 0.1 mg/mL TOCL, in the presence or absence of the indicated concentrations of small molecule inhibitors, were loaded into capillary tubes, and a temperature ramp of 5 °C/min was applied. The intrinsic fluorescence was measured using the NanoTemper Prometheus NT.48 (NanoTemper, München, Germany).

human MPC1L/MPC2 complex [2] = molecular target: T1, human MPC1L/MPC2 complex; assay: CPM thermostability shift assay, purified MPC1L/MPC2; type: binding; conditions: for ∆Tm, CPM assay (thermal shift compared to no-ligand control) / ΔTm at 100 µM / Tm, CPM assay: inhibitor 100 μM; for ΔTm at 100 µM: read-out: ∆Tm, CPM assay (thermal shift compared to no-ligand control); for Tm, CPM assay: unliganded 51.3 ± 0.2, mean ± s.d., 3 biological repeats
Experimental: The assessment of ligand binding was performed via shifts in protein thermostability upon binding using thermal denaturation on a rotary quantitative PCR (qPCR) instrument (Qiagen Rotor-Gene Q 2plex HRM, Venlo, Netherlands), as previously described. In this method, cysteine residues, buried within the protein structure, become solvent-exposed during denaturation in a temperature ramp and then react with 7-diethylamino-3-(4-maleimidophenyl)-4-methylcoumarin (CPM) to form fluorescent-adducts. Briefly, a CPM working solution was prepared by diluting the CPM stock (5 mg/mL in dimethyl sulfoxide) 50-fold into assay buffer (20 mM Tris–HCl, pH 7.4, 150 mM NaCl, 0.1% (w/v) LMNG, 0.1 mg/mL TOCL) and incubated for 10 min at room temperature. In each analysis, performed in duplicates or triplicates, 3 μg of purified MPC was diluted into 45 μL of assay buffer containing the desired concentration of the inhibitor then incubated for 10 min on ice. Next, 5 μL of the CPM working solution were added. Samples were incubated on ice for an additional 10 min then subjected to a temperature ramp of 5.6 °C/min. The fluorescence increase was monitored with the HRM channel of the instrument (excitation at 440–480 nm, emission at 505–515 nm). Unfolding profiles were analysed with the Rotor-Gene Q software 2.3, and the peaks of their derivatives were used to determine the apparent melting temperature.

[3] = molecular target: T2, recombinant human MPC1L/MPC2 (Homo sapiens, UniProt O95563+P0DKB6); assay: Electrospray mass spectrometry of MPC1L/MPC2 after reaction with inhibitors or sulfhydryl modifiers; conditions: for Covalent modification of MPC protomers (molecular mass change): folded MPC1L/MPC2 incubated with compound, ESI-MS
T2 construct: MPC1L (2–136); MPC2 (2–137); eight-histidine tag (C, cleaved yes); TEV protease cleavage site (part stays on MPC2 after digestion) (C, cleaved yes); made in house; host or cells: Saccharomyces cerevisiae SHY15 (mpc triple deletion strain), purified from mitochondria
T2 sequence (P0DKB6 2-136 limits assumed): T1 sequence (P0DKB6 2-136)
T2 sequence (O95563 2-127 limits assumed): T1 sequence (O95563 2-127)
Experimental: Different MPC inhibitors (Table1) or sulfhydryl reagents were first incubated with MPC1L/MPC2 in a folded state, then the protein molecular masses were measured by electrospray mass spectrometry. The MPC subunits (10 μg) were resolved by reverse-phase HPLC on a PLRP-S column (1.0 mm i.d. X 75 mm; VARIAN) using a gradient of 2-propanol in a solvent system compatible with the recovery of membrane proteins (Carroll et al., 2009). The eluate (50 μL/min) was introduced into a QTRAP4000 (SCIEX) mass spectrometer operating in positive ion single MS mode. The instrument was scanned from 700 m/z to 2300 m/z after calibration with ions from a mixture of 1.0 μM of myoglobin and 1.5 μM trypsinogen. Molecular masses were obtained by reconstruction of the spectra of multiply charged ions using PeakView (SCIEX).

[4] = molecular target: T3, human MPC1L/MPC2 hetero-dimer (Homo sapiens, UniProt O95563+P0DKB6); assay: Inhibition of [14C]-pyruvate homo-exchange in MPC1L/MPC2 proteoliposomes; type: biochemical; conditions: for IC50: MPC1L/MPC2 proteoliposomes, 50 μM [14C]-pyruvate homo-exchange, mean ± s.d., read-out: IC50 of pyruvate transport inhibition
T3 construct: eight-histidine tag (C, cleaved yes); TEV protease cleavage site (part stays on MPC2 after digestion) (C, cleaved yes); made in house; host or cells: Saccharomyces cerevisiae SHY15 (mpc triple deletion strain), purified from mitochondria
T3 sequence (P0DKB6 2-136): T1 sequence (P0DKB6 2-136)
T3 sequence (O95563 2-127): T1 sequence (O95563 2-127)
Experimental: Egg L-α-phosphatidylcholine 99% (w/v) (Avanti Polar Lipids, AL, USA) and TOCL were mixed in a 20:1 (w/w) ratio, dried under a stream of nitrogen and washed once with methanol before being dried again. Lipids were hydrated in 20 mM Tris–HCl, pH 8.0, 50 mM NaCl to a concentration of 12 mg/mL. Unlabeled pyruvate was added as a freshly made concentrated stock at a final concentration of 5 mM for internalisation. Lipids were solubilised with 1.2% (v/v) pentaethylene glycol monodecyl ether (Sigma) and freshly purified protein was added at a lipid-to-protein ratio of 250:1 (w/w). Samples were incubated on ice for 5 min, then liposomes were formed by the step-wise removal of pentaethylene glycol monodecyl ether by five additions at 20 min intervals of 60 mg Bio-Beads SM-2 (Bio-Rad, Watford, UK) with gentle mixing at 4 °C. A final addition of 480 mg Bio-Beads was incubated with the samples overnight. Proteoliposomes were first separated from the Bio-Beads by passage through empty spin columns (Bio-Rad, Watford, UK) and subsequently pelleted at 120,000×g for 60 min. The proteoliposomes were resuspended with a thin needle in 150 μL of their supernatant after the rest of the supernatant was removed.
The time course of pyruvate homo-exchange was measured at room temperature. The transport was initiated by diluting proteoliposomes 200-fold into external buffer, 20 mM MES, pH 6.4, 50 mM NaCl, containing 50 μM [^14C]-pyruvate (500,000 dpm, Perkin Elmer, MA, USA). The reaction (0–30 s) was terminated by rapid dilution into 8 volumes of ice-cold internal buffer (20 mM Tris–HCl, pH 8.0, 50 mM NaCl), followed by rapid filtration through cellulose nitrate 0.45 μm filters (Millipore, Gillingham, UK) and washing with an additional 8 volumes of buffer. The filters were dissolved in Ultima Gold scintillation liquid (Perkin Elmer, MA, USA) and the radioactivity was counted with a Perkin Elmer Tri-Carb 2800 RT liquid scintillation counter. […] The data analysis was performed with non-linear regression fittings using GraphPad Prism 7.0d ([Inhibitor] vs response, variable slope). The specific uptake rates were calculated based on the amount of protein used in reconstitutions, as estimated from bicinchoninic acid assay. The biological repeats represent independent proteoliposome preparations using protein from independent purifications.

[5] = number of covalent adducts from mass increase
[6] = MPC1L/MPC2 after reaction with compound

Compound | ∆Tm, nano-DSF (human MPC1L/MPC2 complex [1]) | Tm, nano-DSF (human MPC1L/MPC2 complex [1]) | ΔTm at 100 µM (human MPC1L/MPC2 complex [2]) | Tm, CPM assay (human MPC1L/MPC2 complex [2]) | further results
COc1cc(C2Oc3cc([C@H]4Oc5cc(O)cc(O)c5C(=O)[C@@H]4O)ccc3OC2CO)ccc1O (stereo partly drawn) [Silibinin] | 0.2 ± 0.3 °C | 52.1 ± 0.2 °C | 0.1 ± 0.6 °C | 51.4 ± 0.4 °C | ∆Tm, nano-DSF (human MPC1L/MPC2 complex [1]; listed as silibinin): No thermal shifts; Thermal shift in the CPM assay (human MPC1L/MPC2 complex [2]; compound 1 mM): positive thermal shift; ∆Tm, CPM assay (thermal shift compared to no-ligand control) (human MPC1L/MPC2 complex [2]): No thermal shifts
CCN1C(=O)C=CC1=O [NEM] |  |  |  |  | Covalent modification of MPC protomers (molecular mass change) [3]: modified covalently; Modifications, MPC1L (2–136) [3, 5]: 2 x NEM and 1 x NEM; Modifications, MPC1L (5–136) [3, 5]: unmodified and 1 x NEM and 2 x NEM and 3 x NEM; Modifications, MPC2 (2–137) [3, 5]: 2 x NEM and 1 x NEM and 3 x NEM
O=C(O)C(=Cc1ccc(-c2ccccc2[N+](=O)[O-])o1)C(=O)O [Compound 10] |  |  | -0.1 ± 1.1 °C | 51.2 ± 0.9 °C | ∆Tm, CPM assay (thermal shift compared to no-ligand control) (human MPC1L/MPC2 complex [2]): No thermal shift
CCN(CC)C(=O)/C(C#N)=C/c1cc(O)c(O)c([N+](=O)[O-])c1 [Entacapone, (2E)-2-cyano-3-(3,4-dihydroxy-5-nitrophenyl)-N,N-diethylprop-2-enamide] | 6.3 ± 1.1 °C | 58.2 ± 1.0 °C |  |  | IC50 [4]: 630 ± 53 nM
CCCC(CCC)C(=O)O [Valproic acid, valproic acid] | -0.1 ± 0.3 °C | 51.8 ± 0.2 °C | 0 °C | 51.3 ± 0.3 °C | Effect on pyruvate transport ([4]; 1 mM final concentration): minimal; ∆Tm, CPM assay (thermal shift compared to no-ligand control) (human MPC1L/MPC2 complex [2]): no effect at all
CN1C(=O)NC(=O)/C(=C/c2ccc(-c3ccccc3[N+](=O)[O-])o2)C1=O [Compound 12] |  |  | 9.1 ± 0.9 °C | 60.4 ± 0.7 °C | 
COc1ccc(/C=C(/C#N)C(=O)O)cc1 [Compound 1] |  |  | 9.1 ± 1.2 °C | 60.4 ± 1.0 °C | 
N#C/C(=C/c1ccc(-c2ccccc2Cl)o1)C(=O)O [Compound 8] |  |  | 11 ± 1.9 °C | 62.3 ± 1.7 °C | 
N#C/C(=C/c1ccc(-c2ccccc2[N+](=O)[O-])o1)C(=O)O [Compound 7] |  |  | 16.5 ± 1.4 °C | 67.8 ± 1.2 °C | IC50 [4]: 5.4 ± 1.1 nM; Mass difference (observed vs calculated), MPC1L (2–136) [3, 6]: 0.5 Da; Mass difference (observed vs calculated), MPC1L (5–136) [3, 6]: 0.9 Da; Mass difference (observed vs calculated), MPC2 (2–137) [3, 6]: 1.6 Da; Covalent modification of MPC protomers (molecular mass change) [3]: no molecular mass differences
N#C/C(=C/c1ccc(-c2ccc(F)cc2)o1)C(=O)O [Compound 4] |  |  | 9.1 ± 1.5 °C | 60.4 ± 1.3 °C | 
CCc1ccc(C(=O)COc2ccc(CC3SC(=O)NC3=O)cc2)nc1 (stereo not drawn) [Mitoglitazone, mitoglitazone] | 1.9 ± 0.5 °C | 53.8 ± 0.4 °C | 5.4 ± 0.8 °C | 56.7 ± 0.6 °C | 
